In ChEMBL document CHEMBL3217669, “Activation of a silent phenazine biosynthetic gene cluster reveals a novel natural product and a new resistance mechanism against phenazines” (Medchemcomm, 2012):
Active and inactive are the calls of the source. The calls are words filed in the database; no cut-off is given here.

How the values were obtained:
Format in all cases: functional, organism-based
[1] = test system: Bacillus subtilis; test: Antibacterial activity against Bacillus subtilis ATCC 14893 assessed as growth inhibition at 0.5 umol after overnight incubation
[2] = test system: Escherichia coli; test: Antibacterial activity against Escherichia coli K-12 assessed as growth inhibition at 0.5 umol after overnight incubation
[3] = test system: Streptomyces coelicolor; test: Antibacterial activity against Streptomyces coelicolor M512 assessed as growth inhibition up to 0.5 umol after 48 hrs

Structure (SMILES) | growth inhibition (GI) [1] | growth inhibition (GI) [2] | growth inhibition (GI) [3]
O=C(O)c1cccc2nc3ccccc3nc12 | Active | inactive | inactive
NC(=O)CC[C@H](NC(=O)c1cccc2nc3ccccc3nc12)C(=O)O | inactive | inactive | inactive
